Results reported in PubChem BioAssay AID179 (DTP/NCI, 2004).
“And” between values parts separate entries of the source, which are not always exact repeats. Equal values may be shown once. The source made the active and inactive calls.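 The calls were made as follows: active = compounds giving half or more protection of infected cells from virus-caused growth loss, again on retest; inactive = the rest.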

System: CEM cells HIV-1 protection, formazan growth assay
Assay: NCI AIDS Antiviral Assay
Details: for IC50: measured here: growth of uninfected CEM cells
Method in brief: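 Protection of CEM cells against HIV-1 was scored from cell growth (soluble formazan) across five concentrations, with parallel uninfected cells. Lack of protection may reflect toxicity.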

Structure (SMILES)	EC50 [µM]	IC50	outcome
C[CH2][Sn]([CH2]C)([O]C(=O)c1ccc(F)cc1)[O][Sn]([CH2]C)([CH2]C)[O]C(=O)c1ccc(F)cc1	> 8.13	6.61 µM	–
COC(=O)CN(CC(O)C(NC(C)=O)C(O)C=O)C(=O)OCc1ccccc1 (stereo not drawn)	> 200	> 200 µM	–
ClC1=C(Cl)C(Cl)(Cl)SS1	> 200	33.1 µM	–
CCOC(=O)C(=O)Nc1c(C(C)C)cccc1C(C)C	–	–	inactive
CCCCCCCCCCOCCC(=O)O	> 200	89.1 µM	–
Cc1c2n(c(=O)[nH]c1=O)C1OC(CO)C(O2)C1N=[N+]=[N-] (stereo not drawn)	135	> 200 µM	–
O=C1CCCCN1	–	–	inactive
COC(=O)C1=C2Nc3ccccc3[C@@]23CCN(Cc2ccccc2)[C@H]3CC1[C@H](O)CO (stereo partly drawn)	> 148	83.2 µM	–
Cc1cccc(-c2nc(-c3cnccn3)n(Cc3ccccc3)n2)c1	> 200	> 200 µM	–
COc1ccc2c(c1)N(CC(C)CN(C)C)c1ccccc1S2 (stereo not drawn)	> 200	> 200 µM	–
c1ccc(C(CNCCN2CCCCCC2)C2CCCCC2)cc1 (stereo not drawn)	> 100	11.5 µM	–
CCC(c1ccc(OC)cc1)C1NC(=S)NC1=O (stereo not drawn)	> 200	31.6 µM	–
CCOC(=O)c1ccc(CSc2ccc(Cl)cc2)c([N+](=O)[O-])c1	> 102	> 102 µM	–
CCCC1=C(OC)C(=O)c2c(C)cc(Cl)nc2C1=O	> 200	4.07 µM	–
NC(=O)C(N)CC12CC3CC(CC(C3)C1)C2 (stereo not drawn)	> 200	39.8 µM	–
CCOC(=O)C1S/C(=N\C(=N)N[N+](=O)[O-])N=C1C (stereo not drawn)	–	–	inactive
[N-]=[N+]=NC1(c2ccccc2)C(=O)c2cccc3c2N(CCC3)C1=O (stereo not drawn)	> 200	141 µM	–
C#Cc1ccccc1N1C(=O)C=CC1=O	> 251	> 251 µM	–
COc1cc(/C=C2\C(=O)N(c3ccccc3)C(c3ccccc3)S2(=O)=O)cc(OC)c1OC (stereo not drawn)	> 20	2.88 µM	–
O=c1c2ccccc2[se]n1-c1ccc(I)cc1	> 11	10.7 µM	–
CCOC(=O)Nc1cc2c(c(N)n1)N=C(c1ccccc1)CO2	> 16.6	0.0933 µM	–
Nc1ncnc2c1ncn2C1C=CC(=O)CC1 (stereo not drawn)	> 31.6	5.62 µM	–

Structure (SMILES)	EC50 [µM]	IC50	outcome
CN1CCN(c2[nH]c(=O)n(Cc3ccccc3)c(=S)c2C#N)CC1	> 200	> 200 µM	–
O=[N+]([O-])c1cc(I)cc(/C=N/NS(=O)(=O)c2ccc(F)cc2)c1O	> 389	67.6 µM	–
CSc1nn(C)cc2nc(C)nc1-2	> 200	> 200 µM	–
CC(C)(Br)C(=O)C(Br)Br	> 200	5.25 µM	–
CCOC(=O)CCC(NC(=O)c1ccc(OCc2nc3cc(C(F)(F)F)ccc3nc2-c2ccccc2)cc1)C(=O)OCC (stereo not drawn)	> 200	27.5 µM	–
COc1ccc(CC#N)c(OCc2ccccc2)c1	> 53.7	17.8 µM	–
O=C(CO)C1CC2C=CC1C2 (stereo not drawn)	–	–	inactive
CCCc1[nH]nc(CCC(=O)N(Cc2ccccc2)Cc2ccccc2)c1CC	> 331	> 331 µM	–
CC1=C(C)[C@]2(C)C(C)[C@]13Cn1c(=O)n(-c4ccccc4)c(=O)n1[C@@]32C (stereo partly drawn)	> 77.6	51.3 µM	–
COc1cc2c(cc1OC)C13CC[N+]4(C)CC5CCOC6CCN2C1C6C5CC34 (stereo not drawn)	> 479	66.1 µM	–
COc1ccc(-c2c3c(n(C4OC(COC(C)=O)C(OC(C)=O)C(OC(C)=O)C4OC(C)=O)c(=S)c2C#N)CC(C)(C)CC3=O)cc1 (stereo not drawn)	> 200	26.3 µM and 53.7 µM	–
c1ccc([P+](c2ccccc2)(c2ccccc2)c2ccc([P+](c3ccccc3)(c3ccccc3)c3ccccc3)cc2)cc1	> 74.1	30.9 µM	–
C=C(COC(=O)CC1(CC(=O)O)CCCC1)[C@@H]1CC[C@]2(COC(=O)CC3(CC(=O)O)CCCC3)CC[C@]3(C)[C@H](CC[C@@H]4[C@@]5(C)CC[C@H](OC(=O)CC6(CC(=O)O)CCCC6)C(C)(C)[C@@H]5CC[C@]43C)[C@@H]12	> 200	8.71 µM	–
S=C1NC2(CCCCC2)C2=C(CCCC2)S1	> 141	12 µM	–
CC12C(=O)CC(CC1=O)C2(C)C	> 200	> 200 µM	–
O=C(O)c1[nH]c2c(=O)[nH]c(=O)[nH]c2c1Br	–	–	inactive
C=CCOc1cc(NC(=S)c2sccc2C)ccc1Cl	1.45	14.5 µM	–
COc1c(-c2ccc3c(c2)OCO3)oc2cc3c(c(OC)c2c1=O)OCO3	> 200	> 200 µM	–
C[N+]1(C)CCCC(C#N)(c2ccccc2)CC1 (stereo not drawn)	> 813	–	–
CCC(=O)COc1ccc(NC(NC(=O)C(C(F)(F)F)C(F)(F)F)(C(F)(F)F)C(F)(F)F)cc1	–	–	inactive
Cc1cc(C)nc(NS(=O)(=O)c2ccc(Nc3c4ccccc4nc4c(C(=O)NCCN(C)C)ccc(Cl)c34)cc2)n1	–	–	inactive
